According to US20110104713A1, “PRODUCTS AND PROCESSES FOR MODULATING PEPTIDE-PEPTIDE BINDING DOMAIN INTERACTIONS” (priority 2002, published 2011):
Blank lines part the entries; values can stand above or below the compound they belong to. Non-standard residues stand in square brackets, D forms with d. Residues, ends and D or L forms follow the SMILES beside them. No end group written: not given here. pT = C[C@@H](OP(=O)(O)O)[C@H](N)C(=O)O; pS = N[C@@H](COP(=O)(O)O)C(=O)O

Assays:
Format in all cases: binding
[1] = biological target: T1, Plk-1 PBD (residues 326-603) (Homo sapiens, UniProt P53350); test: Isothermal titration calorimetry of peptides with Plk-1 PBD; settings: for peptide binding to Plk-1 PBD by ITC (in words): no detectable binding for a Plk1 PBD concentration of at least 150 μM
T1 construct: sample cell containing 15 μM Plk-1 PBD (residues 326-603); GST (N, cleaved yes); made in house; host or cells: E. coli BL21
T1 sequence (P53350 326-603): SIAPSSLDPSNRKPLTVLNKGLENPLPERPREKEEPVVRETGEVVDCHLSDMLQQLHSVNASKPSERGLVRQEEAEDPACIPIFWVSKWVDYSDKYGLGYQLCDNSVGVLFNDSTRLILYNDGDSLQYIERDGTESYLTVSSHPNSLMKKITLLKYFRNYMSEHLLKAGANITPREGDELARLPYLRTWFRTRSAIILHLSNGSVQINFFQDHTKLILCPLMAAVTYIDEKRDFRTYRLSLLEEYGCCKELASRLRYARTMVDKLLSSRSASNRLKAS
Description: For deletion mapping of the PBD, C-terminal fragments of Plk-1 were generated by PCR and cloned into the EcoRI and XhoI sites of pcDNA3.1 (Invitrogen). For production of recombinant PBD as a GST fusion in bacteria, the 326-603 fragment of Plk-1 was ligated into the EcoRI and XhoI sites of pGEX-4T (Pharmacia), transformed into BL21, and induced in late log-phase cells at 37° C. for 3.5 hours in the presence of 0.4 mM IPTG. For measurements of peptide binding affinity by ITC, GST-Plk-1 (326-603) was isolated from bacterial lysates using glutathione agarose, cleaved from GST using thrombin (10 U/mL), and purified by anion exchange chromatography (Q Sepharose HP, Pharmacia).
Peptides were synthesized by solid phase technique with two C-terminal lysines to enhance solubility, purified by reverse phase HPLC following deprotection, and confirmed by MALDI-TOF 9 Matrix-assisted laser desorption/ionisation-time of flight mass spectrometry. Some peptides contained an additional tyrosine residue to facilitate concentration determination by optical absorbance. calorimetry measurements were performed using a VP-ITC microcalorimeter (MicroCal Inc., Studio City, Calif.). Experiments involved 10 μL injections of peptide solutions (150 μM-180 μM) into a sample cell containing 15 μM Plk-1 PBD (residues 326-603) in 50 mM Tris/HCl (pH 8.1), 200 mM NaCl, 2 mM TCEP. Thirty injections were performed with a spacing of 240 s and a reference power of 25 μCal/s. Binding isotherms were plotted and analyzed using Origin Software (MicroCal Inc. Studio City, Calif.).
Peptides were synthesized by solid phase technique with two C-terminal lysines to enhance solubility. Some peptides contained an additional tyrosine residue to facilitate concentration determination by optical absorbance. Isothermal titration calorimetry was performed using a VP-ITC microcalorimeter (MicroCal Inc. Studio City, Calif.) by titration of 15-40 μM solutions of PBD proteins with 30×10 μl injections of […] peptide in a starting volume of 1.4-2.0 ml. Binding isotherms were plotted and analyzed using Origin Software (MicroCal Inc. Studio City, Calif.). Binding of in vitro translated Plk1 PBD (wild type and mutants) to bead-immobilized pTP and TP peptide libraries was performed as described previously (Elia et al., Science 299:1228-1231, 2003). pTP and TP indicate the peptide libraries biotin-Z-Gly-Z-Gly-Gly-Ala-X-X-B-X-pThr-Pro-X-X-X-X-Ala-Lys-Lys-Lys SEQ ID NO: 30 biotin-Z-Gly-Z-Gly-Gly-Ala-X-X-B-X-Thr-Pro-X-X-X-X-Ala-Lys-Lys-Lys SEQ ID NO: 31, respectively, where pThr is phosphothreonine, Z is aminohexanoic acid, X denotes all amino acids except Cys, and B is a biased mixture of the amino acids P, L, I, V, F, M, W.

[2] = biological target: T2, GST-PTIP BRCT domains (residues 550-757) (Homo sapiens, UniProt Q6ZW49); test: Isothermal titration calorimetry of peptides with PTIP tandem BRCT domains; settings: for Kd: ITC, PTIP (BRCT)2 domain
T2 construct: 15 μM GST-PTIP BRCT domains (residues 550-757); made in house; host or cells: E. coli DH5a
T2 sequence (Q6ZW49 862-1069): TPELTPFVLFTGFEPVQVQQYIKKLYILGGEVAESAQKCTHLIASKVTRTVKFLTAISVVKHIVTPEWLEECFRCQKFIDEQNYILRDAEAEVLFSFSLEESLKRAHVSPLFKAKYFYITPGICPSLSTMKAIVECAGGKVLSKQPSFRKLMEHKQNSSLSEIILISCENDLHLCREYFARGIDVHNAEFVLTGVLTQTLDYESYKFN
Description: (§1) For deletion mapping of the PTIP and BRCA1 BRCT phospho-binding region and for expression of MDC 1, 53BP1 and Rad9 (FIG. 17-18), fragments were generated by PCR for in vitro transcription/translation and cloned into a pcDNA3.1 expression vector (Invitrogen, San Diego, Calif.). For production of recombinant GST-PTIP BRCT domains and GSTBRCA1 BRCT domains, residues 550-757 of PTIP and residues 1634-1863 of BRCA1 were ligated into the EcoRI and NotI sites of pGEX-4T1 (Pharmacia, Peapack, N.J.) and subsequently transformed into DH5a E. Coli. Protein induction occurred at 37° C. for 4 hours or at 25° C. for 16 hours in the presence of 0.4 mM IPTG. For peptide filter blot analysis and measurements of peptide binding affinity by ITC, GSTPTIP BRCT domains (residues 550-757) and GST-BRCA1 BRCT domains (residues 1634-1863) were isolated from bacterial lysates using glutathione agarose, eluted with 40 mM glutathione, and dialyzed into 50 mM Tris/HCl (pH 8.1), 300 mM NaCl. The GFP-PTIP constructs FL (residues 1-757), !BRCT (residues 1-550), or (BRCT)2 (residues 550-757) were cloned into the EcoRI and SalI sites of the pEGFP-C2 (BD Biosciences Clontech Franklin Lakes, N.J.) expression vector.
(§2) Peptides were synthesized by solid phase technique with three C-terminal lysines to enhance solubility. The peptides were then purified by reverse phase HPLC following deprotection and confirmed by MALDI-TOF mass spectrometry. Calorimetry measurements were performed using a VP-ITC microcalorimeter (MicroCal Inc., Studio City, Calif.). Experiments involved serial 10 μL injections of peptide solutions (20 μM-150 μM) into a sample cell containing 15 μM GST-PTIP BRCT domains (residues 550-757) or 15 μM GST-BRCA1 BRCT domains (residues 1634-1863) in 50 mM Tris/HCl (pH 8.1), 300 mM NaCl. Twenty injections were performed with 240 second intervals between injections and a reference power of 25 μCal/s. Binding isotherms were plotted and analyzed using ORIGIN Software (MicroCal Inc. Studio City, Calif.).

[3] = biological target: T3, GST-BRCA1 BRCT domains (residues 1634-1863) (Homo sapiens, UniProt P38398); test: Isothermal titration calorimetry of peptides with BRCA1 tandem BRCT domains
T3 construct: 15 μM GST-BRCA1 BRCT domains (residues 1634-1863); made in house; host or cells: E. coli DH5a
T3 sequence (P38398 1634-1863): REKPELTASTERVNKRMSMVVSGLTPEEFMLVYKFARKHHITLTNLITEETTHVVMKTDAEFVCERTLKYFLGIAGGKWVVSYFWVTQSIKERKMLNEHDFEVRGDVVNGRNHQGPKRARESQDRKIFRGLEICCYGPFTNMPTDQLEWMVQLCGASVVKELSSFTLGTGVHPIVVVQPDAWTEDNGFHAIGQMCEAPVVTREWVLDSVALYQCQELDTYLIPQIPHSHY
Description: as §1, §2

[4] = biological target: T4, GST-Plk-1 PBD (residues 326-603) interaction with mitotic phosphoproteins (Homo sapiens, UniProt P53350); test: Peptide competition of GST-Plk-1 PBD pull-down of MPM-2 mitotic phosphoproteins from HeLa lysates; settings: 320 μM peptide, 45 minutes at 4° C.; nocodazole-arrested HeLa lysates; listed as 7V
T4 construct: GST-Plk-1 (residues 326-603) was immobilized on glutathionine beads; made in house; host or cells: E. coli BL21
T4 sequence (P53350 326-603): as the sequence (P53350 326-603) above
Description: HeLa cells were arrested in interphase or G2/M by treatment with aphidicolin (5 μg/mL) or nocodazole (50 ng/mL), respectively, for 16 hours. Cells were lysed in 25 mM Tris/HCl (pH 7.5) containing 125 mM NaCl, 0.5% NP-40, 5 mM EDTA, 2 mM DTT, 4 μg/mL pepstatin, 4 μg/mL aprotinin, 4 μg/mL leupeptin, 1 mM Na3VO4, 50 mM NaF, and […] microcystin, and 150 μgs of lysate incubated with 10 μL of glutathione agarose beads containing 2-5 μg of GST-Plk-1 (residues 326-603), GST-Pin1, or GST for 30 minutes at 4° C. Beads were washed four times with lysis buffer. Precipitated proteins were eluted in sample buffer and detected by blotting with monoclonal MPM-2 (Upstate Biotechnology, Inc.) or polyclonal anti-Cdc25C (Santa Cruz Biotechnology, Santa Cruz, Calif.). For peptide competition experiments, GST-Plk-1 (residues 326-603) was immobilized on glutathionine beads and preincubated with 320 μM of PoloBoxtide-optimal, −8T, or −7V for 45 minutes at 4° C. For binding experiments involving mutant cdc25C, HeLa cells were transfected with wild-type and mutated versions of HA-tagged Cdc25C in pECE using Superfect (Qiagen, Valencia, Calif.). Nocodazole (50 ng/mL) was added seventeen hours after transfection and cells incubated for an additional 14 hours to arrest them in G2/M. Point mutations of Cdc25C were constructed using the QuickChange site-directed mutagenesis system (Stratagene) and verified by DNA sequencing.

Compound: PoloBoxtide-7A: mutated version of the optimal peptide, Ala at pT-1 (SEQ ID NO:68) (MAGPMQA[pT]PLNGAYKK)
peptide binding to Plk-1 PBD by ITC (in words) [1]: abolish Plk1 PBD/peptide binding

Compound: CC[C@H](C)[C@H](NC(=O)[C@H](CC(=O)O)NC(=O)[C@H](Cc1ccc(O)cc1)NC(=O)[C@H](C)NC(=O)[C@H](C)NC(=O)CN)C(=O)N[C@@H](COP(=O)(O)O)C(=O)N[C@@H](CCC(N)=O)C(=O)N[C@H](C(=O)N[C@@H](Cc1ccccc1)C(=O)N1CCC[C@H]1C(=O)N[C@@H](Cc1ccccc1)C(=O)N[C@@H](C)C(=O)N[C@@H](CCCCN)C(=O)N[C@@H](CCCCN)C(=O)N[C@@H](CCCCN)C(=O)O)C(C)C [BRCTtide-7pS] (H-GAAYDI[pS]QVFPFAKKK-OH; N-terminus and C-terminus assumed)
Kd [2]: 280 nM | Kd ([3]; ITC, BRCT domains of BRCA1, text, read-out: dissociation constant): 400 nM

Compound: CSCC[C@H](NC(=O)[C@@H]1CCCN1C(=O)CNC(=O)[C@H](C)NC(=O)[C@@H](N)CCSC)C(=O)N[C@@H](CCC(N)=O)C(=O)N[C@@H](CO)C(=O)N[C@H](C(=O)N1CCC[C@H]1C(=O)N[C@@H](CC(C)C)C(=O)N[C@@H](CC(N)=O)C(=O)NCC(=O)N[C@@H](C)C(=O)N[C@@H](CCCCN)C(=O)N[C@@H](CCCCN)C(=O)O)[C@@H](C)OP(=O)(O)O [PoloBoxtide-optimal, MAGPMQ-S-pT-P-LNGAKK] (H-MAGPMQS[pT]PLNGAKK-OH)
Kd [1]: 280 nM

Compound: PoloBoxtide-7T: mutated version of the optimal peptide, Thr at pT-1 (SEQ ID NO:71) (MAGPMQT[pT]PLNGAYKK)
peptide binding to Plk-1 PBD by ITC (in words) [1]: abolish Plk1 PBD/peptide binding

Compound: GAAYDISQVFPFAKKK [BRCTtide-7S]
Kd (N.D.B.) ([2]; PTIP, N.D.B = no detectable binding by ITC, tandem BRCT domain concentration of at least 150 μM): N.D.B. | Kd (N.D.B.) ([3]; BRCA1, N.D.B = no detectable binding by ITC, tandem BRCT domain concentration of at least 150 μM): N.D.B.

The next lines start with the values.

peptide binding to Plk-1 PBD by ITC (in words) [1]: abolish Plk1 PBD/peptide binding
Compound: PoloBoxtide-7C: mutated version of the optimal peptide, Cys at pT-1 (SEQ ID NO:70) (MAGPMQC[pT]PLNGAYKK)

effect of peptide pre-incubation on GST-Plk-1 PBD binding of MPM-2 epitopes [4]: had no effect
Compound: PoloBoxtide-7V: phosphopeptide whose serine at pThr-1 was mutated to valine (SEQ ID NO:67) (MAGPMQV[pT]PLNGAKK)

peptide binding to Plk-1 PBD by ITC (in words) [1]: abolish Plk1 PBD/peptide binding
Compound: PoloBoxtide-7G: mutated version of the optimal peptide, Gly at pT-1 (SEQ ID NO:69) (MAGPMQG[pT]PLNGAYKK)

Kd [2]: 14300 nM
Compound: CC[C@H](C)[C@H](NC(=O)[C@H](CC(=O)O)NC(=O)[C@H](Cc1ccc(O)cc1)NC(=O)[C@H](C)NC(=O)[C@H](C)NC(=O)CN)C(=O)N[C@H](C(=O)N[C@@H](CCC(N)=O)C(=O)N[C@H](C(=O)N[C@@H](Cc1ccccc1)C(=O)N1CCC[C@H]1C(=O)N[C@@H](Cc1ccccc1)C(=O)N[C@@H](C)C(=O)N[C@@H](CCCCN)C(=O)N[C@@H](CCCCN)C(=O)N[C@@H](CCCCN)C(=O)O)C(C)C)[C@@H](C)OP(=O)(O)O [BRCTtide-7pT] (H-GAAYDI[pT]QVFPFAKKK-OH; N-terminus and C-terminus assumed)
